Columns and labels:
[1] = target: E197 Perth NA (B/Perth/211/2001 D197E mutant neuraminidase) (Influenza B virus, UniProt Q3S340, D197E); type: biochemical, influenza B virus B/Perth/211/2001; details: read-out: Km for MUNANA
[2] = target: N197 Yamagata NA (B/Yamagata/186/05 D197N mutant neuraminidase) (Influenza B virus, UniProt Q38G88, D197N); type: biochemical, influenza B virus B/Yamagata/186/05; details: read-out: Km for MUNANA
[3] = tested on: mutant NAs (B/Perth E197 and B/Yamagata N197); type: biochemical, influenza B virus

CC(=O)N[C@H]1[C@H]([C@H](O)[C@H](O)CO)OC(Oc2ccc3c(C)cc(=O)oc3c2)(C(=O)O)C[C@@H]1O (stereo partly shown) [MUNANA, 4-methylumbelliferyl-N-acetylneuraminic acid]
Km [1]: 12.1 ± 3.7 µM | Km [2]: 18.8 ± 4.5 µM

CCC(CC)[C@H](NC(C)=O)[C@@H]1[C@H](O)[C@@H](C(=O)O)C[C@H]1NC(=N)N [compound 3, peramivir]
slow binding of inhibitor [3]: loss of slow binding

O=C(O)C1(F)O[C@H]([C@H](O)[C@H](O)CO)[C@H](O)[C@@H](O)C1F (stereo partly drawn) [compound 4, 2,3-difluoro-2-keto-3-deoxy-D-glycero-D-galactononulosonic acid]
resistance of mutant NAs compared to D197 wild type NA [3]: no resistance

— article PMC2932999 (Journal of Medicinal Chemistry, 2010)
